According to patent US10703757B2, “Compounds and methods for CDK8 modulation and indications therefor” (Plexxikon Inc., priority 2016, dated 2020):

Legend:
[1] = tested on: CDK8 (phosphorylation of STAT1 at serine 727 in A549 cells); assay: Cell based Phospho-STAT1 assay (IFNγ-stimulated A549 cells, AlphaLISA); details: Homo sapiens, A549, A549 cells, phospho-STAT1 after IFNγ stimulation
Summary of the method: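 A549 cells given serial compound dilutions for 1 h at 37 °C, then stimulated with IFNγ at 10 ng/mL final for 30 min. Lysate STAT1 Ser727 phosphorylation measured by AlphaLISA; % inhibition vs stimulated/unstimulated DMSO controls, IC50 by nonlinear regression.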

[2] = tested on: CDK8 (TCF/LEF luciferase reporter in HCT116 cells); assay: Cell based TCF/LEF reporter assay (HCT116+TCF/LEF luciferase); details: Homo sapiens, HCT-116, 24 h
Summary of the method: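 Luciferase readout was corrected for viability (CellTiter-Fluor) and scaled between DMSO high and 10 uM CCT251545 low controls, giving IC50 by nonlinear regression. Compounds, serially diluted, were incubated 24 h at 37 °C on HCT116 clones stably expressing a TCF/LEF-driven luciferase reporter.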

Row | Compound | IC50 [1] [nM] | IC50 [2] [nM]
1 | N#CC1CCC(c2cccn3ncc(-c4ccc(N5CCOCC5)nc4)c23)CC1 (stereo not shown) [Compound P-0141, 4-(3-(6-morpholinopyridin-3-yl)pyrazolo[1,5-a]pyridin-4-yl)cyclohexane-1-carbonitrile] | 0.1 to 100 | 0.1 to 100
2 | N#CC1CCC(c2cccn3ncc(-c4ccc(OCCCN5CCCCC5)cc4)c23)CC1 (stereo not shown) [Compound P-0142, 4-(3-(4-(3-(piperidin-1-yl)propoxy)phenyl)pyrazolo[1,5-a]pyridin-4-yl)cyclohexane-1-carbonitrile] | 0.1 to 100 | 0.1 to 100
3 | N#CC1CCC(c2cccn3ncc(-c4ccc(OCC(O)CN5CCCCC5)cc4)c23)CC1 (stereo not shown) [Compound P-0143, 4-(3-(4-(2-hydroxy-3-(piperidin-1-yl)propoxy)phenyl)pyrazolo[1,5-a]pyridin-4-yl)cyclohexane-1-carbonitrile] | 0.1 to 100 | 0.1 to 100
4 | N#CC1CCC(c2cccn3ncc(-c4ccc(OCC5CCCCO5)cc4)c23)CC1 (stereo not shown) [Compound P-0144, 4-(3-(4-((tetrahydro-2H-pyran-2-yl)methoxy)phenyl)pyrazolo[1,5-a]pyridin-4-yl)cyclohexane-1-carbonitrile] | 0.1 to 100 | 0.1 to 100
5 | O=C1NCCC12CCN(c1cccn3ncc(-c4ccc(OCCOC5CCOCC5)cc4)c13)CC2 [Compound P-0145, 8-(3-(4-(2-((tetrahydro-2H-pyran-4-yl)oxy)ethoxy)phenyl)pyrazolo[1,5-a]pyridin-4-yl)-2,8-diazaspiro[4.5]decan-1-one] | 0.1 to 100 | 0.1 to 100
6 | N#CC1CC=C(c2nccn3ncc(-c4ccc(OCCOC5CCOCC5)cc4)c23)CC1 (stereo not shown) [Compound P-0146, 4-(3-(4-(2-((tetrahydro-2H-pyran-4-yl)oxy)ethoxy)phenyl)pyrazolo[1,5-a]pyrazin-4-yl) cyclohex-3-ene-1-carbonitrile] | 0.1 to 100 | 0.1 to 100
7 | COc1ccc2cc(-c3cnn4ccnc(C5=CCC(C#N)CC5)c34)ccc2n1 (stereo not shown) [Compound P-0147, 4-(3-(2-methoxyquinolin-6-yl)pyrazolo[1,5-a]pyrazin-4-yl)cyclohex-3-ene-1-carbonitrile] | 0.1 to 100 | 0.1 to 100
8 | Cc1nc2cc(-c3cnn4ccnc(C5=CCC(C#N)CC5)c34)ccc2s1 (stereo not shown) [Compound P-0148, 4-(3-(2-methylbenzo[d]thiazol-5-yl)pyrazolo[1,5-a]pyrazin-4-yl)cyclohex-3-ene-1-carbonitrile] | 100 to 1000 | 0.1 to 100
9 | Cc1nc2ccc(-c3cnn4ccnc(C5=CCC(C#N)CC5)c34)cc2s1 (stereo not shown) [Compound P-0149, 4-(3-(2-methylbenzo[d]thiazol-6-yl)pyrazolo[1,5-a]pyrazin-4-yl)cyclohex-3-ene-1-carbonitrile] | 0.1 to 100 | 0.1 to 100
10 | CS(=O)(=O)Nc1ccc2cc(-c3cnn4cccc(C5=CCC(C#N)CC5)c34)ccc2n1 (stereo not shown) [Compound P-0150, N-(6-(4-(4-cyanocyclohex-1-en-1-yl)pyrazolo[1,5-a]pyridin-3-yl)quinolin-2-yl)methanesulfonamide] | 0.1 to 100 | 0.1 to 100
11 | CS(=O)(=O)Nc1ccc2cc(-c3cnn4ccnc(C5=CCC(C#N)CC5)c34)ccc2n1 (stereo not shown) [Compound P-0151, N-(6-(4-(4-cyanocyclohex-1-ene-1-yl)pyrazolo[1,5-a]pyrazin-3-yl)quinolin-2-yl)methanesulfonamide] | 0.1 to 100 | 0.1 to 100
12 | Cc1ccc(-c2cnn3ccnc(C4=CCC(C(N)=O)CC4)c23)cn1 (stereo not shown) [Compound P-0152, 4-(3-(6-methylpyridin-3-yl)pyrazolo[1,5-a]pyrazin-4-yl)cyclohex-3-ene-1-carboxamide] | 100 to 1000 | 0.1 to 100
13 | Cc1ccc2cc(-c3cnn4ccnc(C5=CCC(C(N)=O)CC5)c34)ccc2n1 (stereo not shown) [Compound P-0153, 4-(3-(2-methylquinolin-6-yl)pyrazolo[1,5-a]pyrazin-4-yl)cyclohex-3-ene-1-carboxamide] | 0.1 to 100 | 0.1 to 100
14 | COc1ccc2cc(-c3cnn4ccnc(C5=CCC(C(N)=O)CC5)c34)ccc2n1 (stereo not shown) [Compound P-0154, 4-(3-(2-methoxyquinolin-6-yl)pyrazolo[1,5-a]pyrazin-4-yl)cyclohex-3-ene-1-carboxamide] | 0.1 to 100 | 0.1 to 100
15 | COc1ccc(-c2cnn3ccnc(C4=CCC(C(N)=O)CC4)c23)cn1 (stereo not shown) [Compound P-0155, 4-(3-(6-methoxypyridin-3-yl)pyrazolo[1,5-a]pyrazin-4-yl)cyclohex-3-ene-1-carboxamide] | 100 to 1000 | 100 to 1000
16 | Cn1cc(-c2ccc(-c3cnn4cccc(N5CC6CCC(C5)C6C#N)c34)cc2)cn1 (stereo not shown) [Compound P-0159, 3-(3-(4-(1-methyl-1H-pyrazol-4-yl)phenyl)pyrazolo[1,5-a]pyridin-4-yl)-3-azabicyclo[3.2.1]octane-8-carbonitrile] | 100 to 1000 | 100 to 1000

Row | Compound | IC50 [1] [nM] | IC50 [2] [nM]
17 | N#CC1C2CCC1CN(c1cccn3ncc(-c4ccc(Cl)cc4)c13)C2 (stereo not shown) [Compound P-0161, 3-(3-(4-chlorophenyl)pyrazolo[1,5-a]pyridin-4-yl)-3-azabicyclo[3.2.1]octane-8-carbonitrile] | 1000 to 10000 | 1000 to 10000
18 | CC(C)(O)Cn1cc(-c2ccc(-c3cnn4ccnc(C5=CCC(C#N)CC5)c34)cc2)cn1 (stereo not shown) [Compound P-0162, 4-(3-(4-(1-(2-hydroxy-2-methylpropyl)-1H-pyrazol-4-yl)phenyl)pyrazolo[1,5-a]pyrazin-4-yl)cyclohex-3-ene-1-carbonitrile] | 0.1 to 100 | 0.1 to 100
19 | CC(C)(O)Cn1cc(-c2ccc(-c3cnn4ccnc(C5=CCC(C#N)CC5)c34)cc2F)cn1 (stereo not shown) [Compound P-0163, 4-(3-(3-fluoro-4-(1-(2-hydroxy-2-methylpropyl)-1H-pyrazol-4-yl)phenyl)pyrazolo[1,5-a]pyrazin-4-yl)cyclohex-3-ene-1-carbonitrile] | 0.1 to 100 | 0.1 to 100
20 | Cc1nc2ccc(-c3cnc4[nH]ccc4c3C3=CCC(C#N)CC3)cc2s1 (stereo not shown) [Compound P-0164, 4-(5-(2-methylbenzo[d]thiazol-6-yl)-1H-pyrrolo[2,3-b]pyridin-4-yl)cyclohex-3-ene-1-carbonitrile] | 0.1 to 100 | 0.1 to 100
21 | COc1ccc2ccc(-c3cnn4ccnc(C5=CCC(C#N)CC5)c34)cc2n1 (stereo not shown) [Compound P-0165, 4-(3-(2-methoxyquinolin-7-yl)pyrazolo[1,5-a]pyrazin-4-yl)cyclohex-3-ene-1-carbonitrile] | 100 to 1000 | 1000 to 10000
22 | CS(=O)(=O)Nc1ccc2cc(-c3cnn4ccnc(C5=CCC(C#N)CC5)c34)ccc2c1 (stereo not shown) [Compound P-0166, N-(6-(4-(4-cyanocyclohex-1-en-1-yl)pyrazolo[1,5-a]pyrazin-3-yl)naphthalen-2-yl)methanesulfonamide] | 0.1 to 100 | 0.1 to 100
23 | COc1ccc2cc(-c3cnn4cccc(N5CCC6(CCNC6=O)CC5)c34)ccc2n1 [Compound P-0167, 8-(3-(2-methoxyquinolin-6-yl)pyrazolo[1,5-a]pyridin-4-yl)-2,8-diazaspiro[4.5]decan-1-one] | 0.1 to 100 | 0.1 to 100
24 | Cc1ccc2cc(-c3cnn4cccc(N5CCC6(CCNC6=O)CC5)c34)ccc2n1 [Compound P-0168, 8-(3-(2-methylquinolin-6-yl)pyrazolo[1,5-a]pyridin-4-yl)-2,8-diazaspiro[4.5]decan-1-one] | 0.1 to 100 | 0.1 to 100
25 | Cn1ncc2cc(-c3cnn4cccc(N5CCC6(CCNC6=O)CC5)c34)ccc21 [Compound P-0169, 8-(3-(1-methyl-1H-indazol-5-yl)pyrazolo[1,5-a]pyridin-4-yl)-2,8-diazaspiro[4.5]decan-1-one] | 0.1 to 100 | 0.1 to 100
26 | Cn1cc(-c2ccc(-c3cnn4cccc(N5CCC6(CCNC6=O)CC5)c34)cc2)cn1 [Compound P-0170, 8-(3-(4-(1-methyl-1H-pyrazol-4-yl)phenyl)pyrazolo[1,5-a]pyridin-4-yl)-2,8-diazaspiro[4.5]decan-1-one] | 0.1 to 100 | 0.1 to 100
27 | N#CC1CCN(c2c(-c3ccc(OCCOC4CCOCC4)cc3)cnc3[nH]ccc23)CC1 [Compound P-0171] | 0.1 to 100 | 0.1 to 100
28 | N#CC1CC=C(c2c(-c3ccc(OCCOC4CCOCC4)cc3)cnc3[nH]ccc23)CC1 (stereo not shown) [Compound P-0172, 4-(5-(4-(2-((tetrahydro-2H-pyran-4-yl)oxy)ethoxy)phenyl)-1H-pyrrolo[2,3-b]pyridin-4-yl)cyclohex-3-ene-1-carbonitrile] | 0.1 to 100 | 0.1 to 100
29 | CCn1cc(-c2ccc(-c3cnc4[nH]ccc4c3N3CCC(C#N)CC3)cc2)cn1 [Compound P-0173, 1-(5-(4-(1-ethyl-1H-pyrazol-4-yl)phenyl)-1H-pyrrolo[2,3-b]pyridin-4-yl)piperidine-4-carbonitrile] | 0.1 to 100 | 0.1 to 100
30 | N#CC1CCN(c2c(-c3ccc(-c4cnn(CC(F)(F)F)c4)cc3)cnc3[nH]ccc23)CC1 [Compound P-0174, 1-(5-(4-(1-(2,2,2-trifluoroethyl)-1H-pyrazol-4-yl)phenyl)-1H-pyrrolo[2,3-b]pyridin-4-yl)piperidine-4-carbonitrile] | 0.1 to 100 | 0.1 to 100
31 | N#CC1CCN(c2c(-c3ccc(-c4cnn(CC5CC5)c4)cc3)cnc3[nH]ccc23)CC1 [Compound P-0177, 1-(5-(4-(1-(cyclopropylmethyl)-1H-pyrazol-4-yl)phenyl)-1H-pyrrolo[2,3-b]pyridin-4-yl)piperidine-4-carbonitrile] | 0.1 to 100 | 0.1 to 100
32 | N#CC1CC=C(c2cccn3ncc(-c4ccc(OCC(O)CN5CCOCC5)cc4)c23)CC1 (stereo not shown) [Compound P-0178, 4-(3-(4-(2-hydroxy-3-morpholinopropoxy)phenyl)pyrazolo[1,5-a]pyridin-4-yl)cyclohex-3-ene-1-carbonitrile] | 0.1 to 100 | 0.1 to 100
